Tests used:
Format in all cases: in vivo
[1] = system: lambsquarters (Chenopodium album, CHEAL); test: Post-emerge test, greenhouse herbicide activity screening; details: post-emerge, 14 days after application, rating scale 0-100
Method in brief: (§1)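 Visual ratings on a 0-100 scale (0 no damage, 100 all plants dead) were taken at 14 days after treatment. Rates of 15-1000 g ai/ha in acetone, 187 l/ha, were sprayed onto soil one day after planting (pre-emerge) or onto 2-3 leaf plants with 0.25% v/v surfactant (post-emerge).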

[2] = system: velvetleaf (Abutilon theophrasti, ABUTH); test: as above; details: post-emerge, 14 days after application, rating scale 0-100
Method in brief: as §1

[3] = system: ivyleaf morningglory (Ipomoea hederacea, IPOHE); test: as above; details: post-emerge, 14 days after application, rating scale 0-100
Method in brief: as §1

[4] = system: common ragweed (Ambrosia artemisizfolia L., AMBEL); test: as above; details: post-emerge, 14 days after application, rating scale 0-100
Method in brief: as §1

[5] = system: barnyardgrass (Echinochloa crus-galli, ECHCG); test: as above; details: post-emerge, 14 days after application, rating scale 0-100
Method in brief: as §1

[6] = system: large crabgrass (Digitaria sanguinalis, DIGSA); test: as above; details: post-emerge, 14 days after application, rating scale 0-100
Method in brief: as §1

[7] = system: redroot pigweed (Amaranthus retroflexus, AMARE); test: as above; details: post-emerge, 14 days after application, rating scale 0-100
Method in brief: as §1

[8] = system: green foxtail (Setaria viridis, SETVI); test: as above; details: post-emerge, 14 days after application, rating scale 0-100
Method in brief: as §1

[9] = system: sicklepod (Cassia obtusifolia, CASOB); test: as above; details: post-emerge, 14 days after application, rating scale 0-100
Method in brief: as §1

[10] = system: johnsongrass (Sorghum halepense, SORHA); test: as above; details: post-emerge, 14 days after application, rating scale 0-100
Method in brief: as §1

[11] = system: redroot pigweed (Amaranthus retroflexus, AMARE); test: Pre-emerge test, greenhouse herbicide activity screening; details: rated 14 days after application, 0 = no damage, 100 = complete death
Method in brief: as §1

[12] = system: lambsquarters (Chenopodium album, CHEAL); test: as above; details: rated 14 days after application, 0 = no damage, 100 = complete death
Method in brief: (§2)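 Herbicidal damage is scored 0 (none) to 100 (complete plant death) two weeks after a simulated field spray. Rates span 15–1000 g ai/ha, delivered in acetone at 187 l/ha. For post-emergence treatments, plants have 2–3 leaves and the spray carries 0.25% v/v non-ionic surfactant.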

[13] = system: velvetleaf (Abutilon theophrasti, ABUTH); test: as above; details: rated 14 days after application, 0 = no damage, 100 = complete death
Method in brief: as §2

[14] = system: ivyleaf morningglory (Ipomoea hederacea, IPOHE); test: as above; details: rated 14 days after application, 0 = no damage, 100 = complete death
Method in brief: as §2

[15] = system: common ragweed (Ambrosia artemisizfolia L., AMBEL); test: as above; details: rated 14 days after application, 0 = no damage, 100 = complete death
Method in brief: as §2

[16] = system: barnyardgrass (Echinochloa crus-galli, ECHCG); test: as above; details: rated 14 days after application, 0 = no damage, 100 = complete death
Method in brief: as §2

[17] = system: large crabgrass (Digitaria sanguinalis, DIGSA); test: as above; details: rated 14 days after application, 0 = no damage, 100 = complete death
Method in brief: as §2

[18] = system: green foxtail (Setaria viridis, SETVI); test: as above; details: rated 14 days after application, 0 = no damage, 100 = complete death
Method in brief: as §2

[19] = system: sicklepod (Cassia obtusifolia, CASOB); test: as above; details: rated 14 days after application, 0 = no damage, 100 = complete death
Method in brief: as §2

[20] = system: johnsongrass (Sorghum halepense, SORHA); test: as above; details: rated 14 days after application, 0 = no damage, 100 = complete death
Method in brief: as §2

[21] = system: field corn (Zea mays L., var. Dekalb 535, CORN); test: Pre-emerge test, crop safety; details: rated 14 days after application, 0 = no damage, 100 = complete death
Method in brief: (§3)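 Compounds in acetone were track-sprayed at 15-1000 g ai/ha (187 l/ha) on sandy loam pots: pre-emerge one day after seeding, post-emerge at 2-3 leaf stage with 0.25% v/v non-ionic surfactant. Phytotoxicity was rated 14 days later on a 0 (no damage) to 100 (complete death) scale.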

[22] = system: upland rice (Oryza sp., var. Tebonnet, RICE); test: Pre-emerge test, crop safety; details: rated 14 days after application, 0 = no damage, 100 = complete death
Method in brief: as §3

[23] = system: field corn (Zea mays L., var. Dekalb 535, CORN); test: Post-emerge test, crop safety; details: post-emerge, 14 days after application, rating scale 0-100
Method in brief: as §2

[24] = system: upland rice (Oryza sp., var. Tebonnet, RICE); test: Post-emerge test, crop safety; details: post-emerge, 14 days after application, rating scale 0-100
Method in brief: as §2

COc1c(Cl)cc(F)c(-n2c(=O)cc(C(F)(F)F)n(C)c2=O)c1NC(=O)c1ccc(F)c(F)c1 [2-48]
90: Pre-emerge phytotoxicity rating (0-100), crop damage, CORN ([21]; 63 g ai/ha) | Pre-emerge phytotoxicity rating (0-100), crop damage, RICE ([22]; 63 g ai/ha)
20: phytotoxicity rating DIGSA ([6]; 250 g ai/ha) | phytotoxicity rating SETVI ([8]; 63 g ai/ha)
86: phytotoxicity rating RICE ([24]; 250 g ai/ha)
80: phytotoxicity rating ECHCG ([5]; 250 g ai/ha) | phytotoxicity rating RICE ([24]; 63 g ai/ha)
95: phytotoxicity rating CHEAL ([1]; 63 g ai/ha) | phytotoxicity rating AMARE ([7]; 63 g ai/ha) | Pre-emerge Herbicidal Activity, phytotoxicity rating (0-100), DIGSA ([17]; 63 g ai/ha) | Pre-emerge Herbicidal Activity, phytotoxicity rating (0-100), SORHA ([20]; 63 g ai/ha) | Pre-emerge Herbicidal Activity, phytotoxicity rating (0-100), SORHA ([20]; 250 g ai/ha)
0: phytotoxicity rating ECHCG ([5]; 63 g ai/ha) | phytotoxicity rating DIGSA ([6]; 63 g ai/ha)
30: phytotoxicity rating SORHA ([10]; 63 g ai/ha)
85: phytotoxicity rating AMBEL ([4]; 63 g ai/ha) | Pre-emerge Herbicidal Activity, phytotoxicity rating (0-100), ECHCG ([16]; 63 g ai/ha)
50: phytotoxicity rating CASOB ([9]; 63 g ai/ha) | phytotoxicity rating CORN ([23]; 63 g ai/ha)
100: phytotoxicity rating CHEAL ([1]; 250 g ai/ha) | phytotoxicity rating ABUTH ([2]; 63 g ai/ha) | phytotoxicity rating ABUTH ([2]; 250 g ai/ha) | phytotoxicity rating IPOHE ([3]; 63 g ai/ha) | phytotoxicity rating IPOHE ([3]; 250 g ai/ha) | phytotoxicity rating AMBEL ([4]; 250 g ai/ha) | phytotoxicity rating AMARE ([7]; 250 g ai/ha) | phytotoxicity rating CASOB ([9]; 250 g ai/ha) | Pre-emerge Herbicidal Activity, phytotoxicity rating (0-100), AMARE ([11]; 63 g ai/ha) | Pre-emerge Herbicidal Activity, phytotoxicity rating (0-100), AMARE ([11]; 250 g ai/ha) | Pre-emerge Herbicidal Activity, phytotoxicity rating (0-100), CHEAL ([12]; 63 g ai/ha) | Pre-emerge Herbicidal Activity, phytotoxicity rating (0-100), CHEAL ([12]; 250 g ai/ha) | Pre-emerge Herbicidal Activity, phytotoxicity rating (0-100), ABUTH ([13]; 63 g ai/ha) | Pre-emerge Herbicidal Activity, phytotoxicity rating (0-100), ABUTH ([13]; 250 g ai/ha) | Pre-emerge Herbicidal Activity, phytotoxicity rating (0-100), IPOHE ([14]; 63 g ai/ha) | Pre-emerge Herbicidal Activity, phytotoxicity rating (0-100), IPOHE ([14]; 250 g ai/ha) | Pre-emerge Herbicidal Activity, phytotoxicity rating (0-100), AMBEL ([15]; 63 g ai/ha) | Pre-emerge Herbicidal Activity, phytotoxicity rating (0-100), AMBEL ([15]; 250 g ai/ha) | Pre-emerge Herbicidal Activity, phytotoxicity rating (0-100), ECHCG ([16]; 250 g ai/ha) | Pre-emerge Herbicidal Activity, phytotoxicity rating (0-100), DIGSA ([17]; 250 g ai/ha) | Pre-emerge Herbicidal Activity, phytotoxicity rating (0-100), SETVI ([18]; 63 g ai/ha) | Pre-emerge Herbicidal Activity, phytotoxicity rating (0-100), SETVI ([18]; 250 g ai/ha) | Pre-emerge Herbicidal Activity, phytotoxicity rating (0-100), CASOB ([19]; 63 g ai/ha) | Pre-emerge Herbicidal Activity, phytotoxicity rating (0-100), CASOB ([19]; 250 g ai/ha)
60: phytotoxicity rating SORHA ([10]; 250 g ai/ha)
99: Pre-emerge phytotoxicity rating (0-100), crop damage, CORN ([21]; 250 g ai/ha) | Pre-emerge phytotoxicity rating (0-100), crop damage, RICE ([22]; 250 g ai/ha)
70: phytotoxicity rating SETVI ([8]; 250 g ai/ha) | phytotoxicity rating CORN ([23]; 250 g ai/ha)

From US6355799B1, “Substituted benzene compounds, process for their preparation, and herbicidal and defoliant compositions containing them” (ISK Americas Incorporated, priority 1997, dated 2002)
